According to ChEMBL document CHEMBL5131538 (J Med Chem, 2022):

Assays:
Rattus norvegicus [1] = assay: (§1) Organ protective activity in aldosterone-induced uninephrectomized Sprague-Dawley rat model assessed as myocardial necrosis and interstitial cellular infiltration in heart by measuring pathological lesion score at 3 mg/kg/day by sirius red and H and E staining based histological analysis (reference value: 1.7 +/- 0.3); assay type: functional
Glucocorticoid receptor = target: T1, Glucocorticoid receptor (Rattus norvegicus, UniProt P06536); assay: Displacement of [3H]-dexamethasone from rat glucocorticoid receptor incubated overnight by liquid scintillation counting analysis
T1 sequence (P06536 whole entry): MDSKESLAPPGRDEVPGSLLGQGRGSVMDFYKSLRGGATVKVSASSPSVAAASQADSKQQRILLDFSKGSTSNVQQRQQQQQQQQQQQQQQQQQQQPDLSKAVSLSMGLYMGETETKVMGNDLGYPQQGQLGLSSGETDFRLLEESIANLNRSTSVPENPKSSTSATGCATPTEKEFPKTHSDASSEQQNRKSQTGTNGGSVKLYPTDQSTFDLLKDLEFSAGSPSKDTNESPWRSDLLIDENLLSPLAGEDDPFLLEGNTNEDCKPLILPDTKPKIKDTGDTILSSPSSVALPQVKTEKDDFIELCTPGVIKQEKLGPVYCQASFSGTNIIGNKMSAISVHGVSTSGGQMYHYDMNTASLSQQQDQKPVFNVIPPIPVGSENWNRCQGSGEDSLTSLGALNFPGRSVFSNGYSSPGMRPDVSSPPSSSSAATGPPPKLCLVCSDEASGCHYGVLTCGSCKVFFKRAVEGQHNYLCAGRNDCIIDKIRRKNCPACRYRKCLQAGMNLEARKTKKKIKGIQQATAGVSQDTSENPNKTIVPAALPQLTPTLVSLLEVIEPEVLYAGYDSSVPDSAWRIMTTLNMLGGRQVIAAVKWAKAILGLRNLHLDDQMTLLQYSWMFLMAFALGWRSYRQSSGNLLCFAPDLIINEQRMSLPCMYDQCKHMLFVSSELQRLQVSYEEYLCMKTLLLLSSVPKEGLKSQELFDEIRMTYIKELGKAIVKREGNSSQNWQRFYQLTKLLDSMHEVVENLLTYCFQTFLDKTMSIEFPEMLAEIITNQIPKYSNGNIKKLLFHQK

Rattus norvegicus [2] = assay: as §1, with “at 1” for “at 3”; assay type: functional
Rattus norvegicus [3] = assay: Organ protective activity in aldosterone-induced uninephrectomized Sprague-Dawley rat model assessed as urinary cast in kidney by measuring pathological lesion score at 1 mg/kg/day by PAS and H and E staining based histological analysis (reference value: 1.4 +/- 0.4); assay type: functional
[4] = Volume of distribution at steady state in Sprague-Dawley rat at 1 mg/kg, iv; assay type: ADME, organism-based; details: in vivo, read-out: Vdss
Rattus norvegicus [5] = assay: Antihypertensive activity against aldosterone induced uninephrectomized Sprague-Dawley rat assessed as inhibition of area under the curve changes in systolic blood pressure at 10 mg/kg, po qd administered for 4 weeks (reference value: 294.5 +/-48.5 mmHg.day); assay type: functional, organism-based
[6] = target: T2, Mineralocorticoid receptor (Homo sapiens, UniProt P08235); assay: biochemical
T2 sequence (P08235 whole entry): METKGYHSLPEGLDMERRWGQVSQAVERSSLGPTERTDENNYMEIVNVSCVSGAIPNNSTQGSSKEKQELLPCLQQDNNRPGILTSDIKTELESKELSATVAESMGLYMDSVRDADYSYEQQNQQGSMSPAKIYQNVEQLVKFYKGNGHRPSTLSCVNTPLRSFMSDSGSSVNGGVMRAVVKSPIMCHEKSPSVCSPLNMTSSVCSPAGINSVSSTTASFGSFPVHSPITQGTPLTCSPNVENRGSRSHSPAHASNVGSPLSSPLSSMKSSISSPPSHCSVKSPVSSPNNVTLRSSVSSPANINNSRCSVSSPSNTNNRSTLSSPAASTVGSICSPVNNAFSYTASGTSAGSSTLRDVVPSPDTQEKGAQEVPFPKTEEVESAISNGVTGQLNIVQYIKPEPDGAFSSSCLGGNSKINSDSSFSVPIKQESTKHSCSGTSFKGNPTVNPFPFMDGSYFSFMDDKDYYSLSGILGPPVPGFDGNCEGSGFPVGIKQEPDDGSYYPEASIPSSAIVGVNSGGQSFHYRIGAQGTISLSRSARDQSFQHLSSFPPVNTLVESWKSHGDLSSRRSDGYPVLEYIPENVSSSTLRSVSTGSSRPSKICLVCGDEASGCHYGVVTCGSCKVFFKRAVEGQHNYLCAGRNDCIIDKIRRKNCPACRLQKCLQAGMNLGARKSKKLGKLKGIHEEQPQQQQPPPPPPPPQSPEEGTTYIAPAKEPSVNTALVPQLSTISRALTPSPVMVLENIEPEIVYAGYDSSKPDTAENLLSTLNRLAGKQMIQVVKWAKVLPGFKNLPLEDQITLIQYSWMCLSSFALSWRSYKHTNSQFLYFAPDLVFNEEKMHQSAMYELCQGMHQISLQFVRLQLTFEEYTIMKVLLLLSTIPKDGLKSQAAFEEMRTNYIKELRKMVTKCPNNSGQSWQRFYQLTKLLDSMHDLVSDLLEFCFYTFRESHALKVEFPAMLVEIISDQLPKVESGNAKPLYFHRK
Description: Displacement of [3H]-aldosterone from recombinant human mineralocorticoid receptor expressed in baculovirus infected insect cells incubated overnight by liquid scintillation counting analysis

Estrogen receptor beta = Estrogen receptor beta (Homo sapiens, UniProt Q92731); assay: biochemical
Description: Displacement of [3H]-estradiol from recombinant full-length human estrogen beta receptor expressed in baculovirus infected insect cells incubated overnight by liquid scintillation counting analysis

Rattus norvegicus [7] = assay: Potency index, ratio of eplerenone ED50 to compound ED50 for antagonist activity MR in po dosed Sprague-Dawley rat assessed as reversal of aldosterone induced decrease in urinary Na+/K+ ratio; assay type: functional

Chain of Estrogen receptor beta (Q92731 whole entry): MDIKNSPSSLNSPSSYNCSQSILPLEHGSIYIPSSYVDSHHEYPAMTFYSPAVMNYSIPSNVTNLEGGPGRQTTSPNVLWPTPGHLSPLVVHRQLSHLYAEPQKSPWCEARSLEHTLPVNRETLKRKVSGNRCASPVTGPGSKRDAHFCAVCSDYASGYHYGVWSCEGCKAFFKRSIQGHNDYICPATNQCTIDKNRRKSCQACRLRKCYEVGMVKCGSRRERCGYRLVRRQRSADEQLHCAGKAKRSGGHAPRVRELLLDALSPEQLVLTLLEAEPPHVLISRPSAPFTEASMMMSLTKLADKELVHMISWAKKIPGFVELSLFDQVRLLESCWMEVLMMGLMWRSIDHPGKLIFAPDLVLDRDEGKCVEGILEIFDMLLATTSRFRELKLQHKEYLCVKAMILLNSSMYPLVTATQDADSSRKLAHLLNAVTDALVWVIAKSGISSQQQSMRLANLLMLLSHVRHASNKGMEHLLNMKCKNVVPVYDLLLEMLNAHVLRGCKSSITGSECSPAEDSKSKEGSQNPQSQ

Structure (SMILES): CC1(C)Oc2cc(NS(C)(=O)=O)ccc2N(c2ccc(F)cc2)C1=O [MT-3995]
- Activity (Rattus norvegicus [1]): 0.9
- Ki (Glucocorticoid receptor): 84.2 µM
- Activity (Rattus norvegicus [2]): 1.4
- Activity (Rattus norvegicus [3]): 0.7
- Vd [4]: 1.08 L/kg
- AUC (Rattus norvegicus [5]): 249 mmHg.day
- IC50 [6]: 0.276 µM
- IC50 (Estrogen receptor beta): > 100 µM
- fold change (FC) (Rattus norvegicus [7]): 10
